Read-outs that look alike come from different tables or passages of the source. A value given as a limit tells only on which side of the number the result lay.

For data set [1], the system named is HeLa-LC5-RIC cells. In words: Cytotoxicity in HeLa-LC5-RIC cells (Cell Titer Glo). It counts as cell-based. Here is the method:
Cell viability was measured via the presence of ATP using the Promega Cell Titer Glo kit according to the manufacturer's instructions. Luminescence was detected using the Cytation3 by Biotek. […] (B) The same set of data as shown in FIG. 4A was plotted in a line graph. […] (D) As for FIG. 4A, Huh7.5 cells (1.0×10^4 cells/well) were seeded and incubated with C10 at the indicated concentrations for the indicated time points before measurement of viability using the Promega Cell Titer Glo kit.
It is shown that compound C10 is not toxic even a high concentrations of up to 40 μM.
In general terms: ATP-based viability assays read luminescence as a measure of living cells.

Data set [2] relates to ChikV. In words: IC50 in established virological assays (Table 1), ChikV. Conditions: Chikungunya virus. It counts as cell-based.
The subject of data set [3] is RSV. As to the kind of experiment: IC50 in established virological assays (Table 1), RSV. Conditions: human respiratory syncytial virus. Type of data set: cell-based. How it is done: (§1) In summary, a set of C10 derivatives (FIG. 12) was designed, synthesized and tested against HCV (which is considered as an established system to monitor drug effects against Flaviviridae) as well as DENV for comprehensive structure-activity relationship (SAR) analysis and target validation. IC50 and CC50 values for compound C10 were determined in established virological assays (Table 1). […] Further, said experiments underline the specificity of compound C10 for flaviviruses.

Data set [4] deals with MeV. As to the kind of experiment: IC50 in established virological assays (Table 1), MeV. Type of data set: cell-based, Measles morbillivirus. How it is done: as §1
Data set [5] relates to ZIKV (Asian/Cook Islands/2014). As to the kind of experiment: Plaque assay of released virus, ZIKV-infected Vero cells. It counts as cell-based. Conditions: Zika virus. Here is the method:
(§2) Vero cells were infected with ZIKV at an MOI of 1 for 2 h (post infection), after which virus was removed, and fresh maintenance medium containing 2% FCS together with the indicated concentration of C10 added. For co-treat condition, Vero cells were infected with ZIKV at an MOI of 1 in the presence of C10 for 2 h, followed by removal of the virus/C10 inoculums, and addition of fresh 2% fetal calf serum maintenance medium. […] Results represent the mean ±SD for duplicate wells from a single assay (cf. Table 2 for pooled data).
Vero and BHK-21 cells were maintained in DMEM media supplemented with 10% heat-inactivated FBS at 37° C. in a humidified incubator supplemented with 5% CO2; A549 cells were maintained in F-12K medium supplemented with 10% heat-inactivated Fetal Bovine Serum (FBS), 2 mM L-glutamine, 50 U/I penicillin, 0.05 mg/l streptomycin. DENV-1-4 strains, cell culture conditions and Gen-Bank accession numbers, as well as details of RSV strains and culture are known in the art. […] Viral titer was subsequently determined by plaque assay (see below).
Vero cells were seeded into 24-well plates at a density of 2×10^5 cells/well and grown overnight in culture medium at 37° C. with 5% CO2 prior to infection with RSV, KUNV, ZIKV as indicated. BHK-21 cells were used for DENV1-4. […] The stain was removed by rinsing the cells with tap water, and the viral plaques were counted visually. […]

The test system of data set [6] is DENV3. In words: Plaque assay of released virus, DENV3-infected Vero cells. It counts as cell-based. Conditions: Dengue virus. How it is done: as §2, with “DENV1-4” for “ZIKV”, “infection, p.i., (A)),” for “infection),”, “condition (c.t., (B)),” for “condition,”, “assay, representative of 2 independent experiments” for “assay”, “Tables 2A and 2B, infra,” for “Table 2”
(§3) Vero and BHK-21 cells were maintained in DMEM media supplemented with 10% heat-inactivated FBS at 37° C. in a humidified incubator supplemented with 5% CO2; A549 cells were maintained in F-12K medium supplemented with 10% heat-inactivated Fetal Bovine Serum (FBS), 2 mM L-glutamine, 50 U/I penicillin, 0.05 mg/l streptomycin. […] Viral titer was subsequently determined by plaque assay (see below).
(§4) Vero cells were seeded into 24-well plates at a density of 2×10^5 cells/well and grown overnight in culture medium at 37° C. with 5% CO2 prior to infection with RSV, KUNV, ZIKV as indicated. […] The stain was removed by rinsing the cells with tap water, and the viral plaques were counted visually. […]

Data set [7] deals with DENV2. As to the kind of experiment: Plaque assay of released virus, DENV2-infected Vero cells. It counts as cell-based. Conditions: Dengue virus. How it is done: as §2, with “DENV1-4” for “ZIKV”, “infection, p.i., (A)),” for “infection),”, “condition (c.t., (B)),” for “condition,”, “assay, representative of 2 independent experiments” for “assay”, “Tables 2A and 2B, infra,” for “Table 2”
as §3, §4

For data set [8], the system named is HCV-JC1-Luc. In words: Validation of antiviral effects of 20 hits: release of infectious HCV-JC1-Luc particles from Huh7.5 cells. Conditions: 10 μM, among the best 20 candidates. It counts as cell-based, Hepatitis C virus. How it is done: Huh7.5 cells were electroporated with HCV-JC1-Luc (reporter virus expressing luciferase via IRES) RNA and treated 24 h later with the best 20 candidates (10 μM). After another 24 h the supernatants were harvested. To quantify infectious particles, untreated Huh7.5 cells were inoculated with the supernatants and 36 h later the luciferase activity was measured. The viability of the same cells was determined 24 h after treatment with inhibitor by MTT assay (tetrazolium salt which is reduced in metabolically active cells resulting in a color change). For both parameters, 100% corresponds to the release or viability of the untreated or DMSO treated control. uninf.=not infected; untr.=not treated. Mean values and SD were derived from n =3 independent infections.
Huh7.5 hepatocellular carcinoma cells were electroporated with HCV-JC1-Luc (reporter virus expressing luciferase via IRES) RNA and treated 24 h later with the best 20 candidates (10 μM) identified in Example 1. After another 24 h, the supernatants were harvested. To quantify infectious particles, untreated Huh7.5 cells were inoculated with the supernatants and luciferase activity was measured 36 h later (FIG. 2).

For the compound `CCN1/C(=C\C=C\c2sc3cc(NC(C)=O)ccc3[n+]2CC)Sc2cc(NC(C)=O)ccc21.[I-]` [C10, 6-acetamido-2-((1E,3E)-3-(6-acetamido-3-ethylbenzo[d]thiazol-2(3H)-ylidene)prop-1-en-1-yl)-3-ethylbenzo[d]thiazol-3-ium iodide], in data set [1], the cytotoxicity entry was “not toxic”. Besides, the concentration for half-maximal inhibition (IC50) in data set [2] is 5600 nM; in data set [3], 4300 nM; in data set [4] (Measles morbillivirus, MeV), over 10000 nM. The “activity against Measles morbillivirus (MeV)” value in data set [4] is “inactive or has only minor activity”. Besides, the EC50 in data set [5] (read-out: EC50 from plaque assays, ZIKV, c.t.) came out at 90 nM; in data set [5] (read-out: EC50 from plaque assays, ZIKV, p.i.) it was 210 nM; in data set [6] (read-out: EC50 from plaque assays, DENV3, c.t.), 10 nM; in data set [6] (read-out: EC50 from plaque assays, DENV3, p.i.), 600 nM; in data set [7] (read-out: EC50 from plaque assays, DENV2, c.t.) it was 40 nM; in data set [7] (read-out: EC50 from plaque assays, DENV2, p.i.), 1300 nM. In data set [8], the “antiviral activity (release of infectious particles)” value is “highest antiviral activity”.

For orientation: IC50 means the concentration that gives 50% inhibition. Broadly, the EC50 is the concentration that produces a half-maximal response.

Values taken from patent US12527773B2, “Flavi-block: a pan-flavivirus inhibitor” (Baden-Württemberg Stiftung GmbH, priority 2020, dated 2026).
